Results: ChEMBL document CHEMBL1155139 (Antimicrob Agents Chemother, 2007)
Values after ≈ are worked out from the molar mass of the structure shown.

Assays:
[1] = test system: Plasmodium falciparum; test: Antimalarial activity against Plasmodium falciparum K1; assay type: functional, organism-based
[2] = test system: Plasmodium berghei; test: Antimalarial activity as reduced parasitaemia at day 3 against Plasmodium berghei infected MORO mice (Mus musculus) at 100 mg/kg peroral dose; assay type: functional; parameters: scale not given: the % may be the effect or the level left; settings: route oral
[3] = test system: Plasmodium falciparum; test: Antimalarial activity against Plasmodium falciparum NF54; assay type: functional, organism-based
[4] = test system: Plasmodium berghei; test: Antimalarial activity as reduced parasitaemia at day 3 against Plasmodium berghei infected MORO mice (Mus musculus) at 100 mg/kg subcutaneous dose; assay type: functional; parameters: scale not given: the % may be the effect or the level left
[5] = test system: Plasmodium falciparum; test: Antimalarial activity against Plasmodium falciparum FcB1; assay type: functional, organism-based; settings: FcB1/Columbia

Q: For `C1CCCC2(CC1)OOC1(CCCCCC1)OO2`, which IC50 [1] is on record?
A: 0.014 µg/mL (≈ 0.0546 µM)

Q: And the Activity [2]?
A: 60%

Q: What about the IC50 [3] of the same compound?
A: 0.011 µg/mL (≈ 0.0429 µM)

Q: And the Activity [4]?
A: 56%

Q: And the IC50 [5]?
A: 0.021 µg/mL (≈ 0.0819 µM)

Q: `C1CCC2(CC1)COC1(CCCCC1)OC2` was tested. Which IC50 [1] did it give?
A: > 10 µg/mL

Q: What about the IC50 [3] of the same compound?
A: > 10 µg/mL

Q: What does the source list for `CCCCC1(CCCC)OOC(CCCC)(CCCC)OOC(CCCC)(CCCC)OO1`?
A: IC50 [1]: > 10 µg/mL; IC50 [3]: > 10 µg/mL

Q: For `CCCC1(CCC)OOC(CCC)(CCC)OO1`, which IC50 [1] is on record?
A: 0.04 µg/mL (≈ 0.154 µM)

Q: And the Activity [2]?
A: 21%

Q: What about the IC50 [3] of the same compound?
A: 0.023 µg/mL (≈ 0.0883 µM)

Q: And the Activity [4]?
A: 0%

Q: What about the IC50 [5] of the same compound?
A: 0.048 µg/mL (≈ 0.184 µM)

Q: With `CCCCC1(CCCC)OOC(CCCC)(CCCC)OO1` as the compound, how does the IC50 [1] read?
A: 0.071 µg/mL (≈ 0.224 µM)

Q: And the Activity [2]?
A: 47%

Q: What about the IC50 [3] of the same compound?
A: 0.088 µg/mL (≈ 0.278 µM)

Q: And the Activity [4]?
A: 5%

Q: `C[C@@H]1CC[C@H]2[C@@H](C)C(=O)O[C@@H]3O[C@@]4(C)CC[C@@H]1[C@]32OO4` [ARTEMISININ] was tested. Which Activity [2] did it give?
A: 98%

Q: What about the IC50 [3] of the same compound?
A: 0.0034 µg/mL (≈ 0.012 µM)

Q: And the Activity [4]?
A: 99.99%

Q: How did the Activity [2] turn out when `C[C@@H]1CCCCC12OOC1(CCCC[C@@H]1C)OO2` (stereo partly drawn) [WR-148999] was run?
A: 99.7%

Q: What about the Activity [4] of the same compound?
A: 99.99%
